Measured values reported in PubChem BioAssay AID1964 (Broad Institute, 2009).
Inconclusive results are not listed. Active and inactive are the calls of the source. The rule behind the calls is not given here.

Molecular target: RNA-binding protein pos-1 (Caenorhabditis elegans) (UniProt G5EF15)
Assay: inhibitors of POS-1/mex-3 RNA binding, dose response, biochemical, fluorescence polarization (AID 1964)
Conditions: POS-1/mex-3 RNA fluorescence polarization

Chain of RNA-binding protein pos-1 (Caenorhabditis elegans) (G5EF15 whole entry, looked up): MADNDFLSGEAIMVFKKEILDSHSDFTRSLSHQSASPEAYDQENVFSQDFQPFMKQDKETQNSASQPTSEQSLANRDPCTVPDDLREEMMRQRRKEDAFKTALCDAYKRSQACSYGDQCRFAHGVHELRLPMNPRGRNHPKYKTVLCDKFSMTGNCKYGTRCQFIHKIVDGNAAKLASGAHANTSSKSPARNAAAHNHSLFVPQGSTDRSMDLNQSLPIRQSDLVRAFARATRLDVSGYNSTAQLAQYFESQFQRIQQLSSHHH

Row | SMILES | IC50
1 | C[C@H]1c2cccc(O)c2C(O)=C2C(=O)[C@]3(O)C(O)=C(C(N)=O)C(=O)[C@@H](N(C)C)[C@@H]3[C@@H](O)[C@@H]21 | > 30 µM (inactive)
2 | C[C@H]1c2cccc(O)c2C(O)=C2C(=O)[C@]3(O)C(O)=C(C(N)=O)C(=O)[C@@H](N(C)C)C3[C@@H](O)C21 (stereo not given in full) | > 30 µM (inactive)
3 | Cc1cc(/C=C2/C(=O)NC(=O)N(Cc3ccco3)C2=O)c(C)n1-c1ccc(C(=O)O)cc1 | > 30 µM (inactive)
4 | Cc1cc(/C=C2\C(=O)NC(=O)N(Cc3ccco3)C2=O)c(C)n1-c1ccc(C(=O)O)cc1 | > 30 µM (inactive)
5 | CCC(C)/C=C(C)/C=C/C1=CC2=C(Cl)C(=O)C(C)(OC(C)=O)C(=O)C2=CO1 (stereo not given) | > 30 µM (inactive)
